Test results as given in patent US12084419B2, “Cell metabolism modulating compounds and uses thereof” (CRESCENTA BIOSCIENCES, priority 2020, dated 2024).

Molecular target: T1, His6 tagged human recombinant FABP4 (Homo sapiens, UniProt P15090)
T1 construct: purchased Cayman Chemicals 10009549
Assay: FABP4 TR-FRET assay: displacement of BODIPY FL C12 fatty acid
Conditions: triplicates, inhibition of BODIPY FL C12 binding; for inhibition at 1 µM: 1 μM compound; for inhibition at 10 µM: 10 μM compound
Source text: Activity of compounds with FABP4 was profiled using a Terbium (Tb) based time resolved fluorescence energy transfer (TR-FRET) assay. The assay measures the compound mediated displacement of the fluorescent fatty acid BODIPY FL C12 (Thermo Fisher; catalog number D3822) from His6 tagged human recombinant FABP4 (His6-FABP4; Cayman Chemicals, catalog number 10009549) via recording the energy transfer from TB donor molecule on anti-His6-tag antibody to acceptor BODIPY moiety. Briefly, compounds were prepared at a concentration of 0.362 mM and 0.0362 mM, and BODIPY FL C12 was prepared at 4.2 μM, in DMSO. 1.2 μL of each compound or DMSO (vehicle control) and 1.2 μL of BODIPY FL C12 were added into the wells of a 384-well black polypropylene plate. His6-FABP4 and Tb anti-His6 antibody were prepared in the assay buffer (25 mM Tris/HCl, pH 7.4, 0.4 mg/ml y-globulins, 0.010% NP-40, 1 mM DTT) at a concentration of 83 nM and 49.6 nM, respectively. The protein and antibody solutions were then mixed at a ratio of 34:7 (v/v) and incubated on ice for 30 minutes. The assay was initiated by adding 41 μL of the resulting protein/antibody solution into the wells containing the compounds and BODIPY FL C12. The plate was centrifuged and incubated at room temperature for 10 min. The TR-FRET signals were recorded using an EnVision Multilabel plate reader (PerkinElmer; TB excitation 320 nm, BODIPY FL C12 emission 520 nm; TB emission 615 nm). Relative fluorescence ratio (520 nm*10,000/615 nm) were used to calculate the compound mediated inhibition of BODIPY C12 FL fatty acid binding to FABP4. […] Glucose consumption and FABP4 inhibition is shown below in Table 3 below.

T1 sequence (P15090 whole entry): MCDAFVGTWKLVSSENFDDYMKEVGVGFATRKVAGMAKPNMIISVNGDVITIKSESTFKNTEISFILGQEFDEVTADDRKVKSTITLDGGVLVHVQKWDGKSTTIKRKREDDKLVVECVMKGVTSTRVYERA

Compound	inhibition at 1 µM [%]	inhibition at 10 µM [%]
NC(=O)c1cccc(Cn2c3c(c4cccc(C(=O)O)c42)CCCC(CCc2ccccc2)C3)c1 (stereo not shown) [5-[(3-carbamoylphenyl)methyl]-7-(2-phenylethyl)-5H,6H,7H,8H,9H,10H-cyclohepta[b]indole-4-carboxylic acid]	99.1	98
CCC1CCCc2c(n(Cc3cccc(C(N)=O)c3)c3c(C(=O)O)cccc23)C1 (stereo not shown) [5-[(3-carbamoylphenyl)methyl]-7-ethyl-5H,6H,7H,8H,9H,10H-cyclohepta[b]indole-4-carboxylic acid]	91.8	100
CCCCCCC1CCCc2c(n(Cc3cccc(C(N)=O)c3)c3c(C(=O)O)cccc23)C1 (stereo not shown) [5-[(3-carbamoylphenyl)methyl]-7-hexyl-5H,6H,7H,8H,9H,10H-cyclohepta[b]indole-4-carboxylic acid]	102	94.2
CCCCCCCCC1CCCc2c(n(Cc3cccc(C(N)=O)c3)c3c(C(=O)O)cccc23)C1 (stereo not shown) [5-[(3-carbamoylphenyl)methyl]-7-octyl-5H,6H,7H,8H,9H,10H-cyclohepta[b]indole-4-carboxylic acid]	98.1	93.6
CCCCCC1CCCc2c(n(Cc3cccc(C(N)=O)c3)c3c(C(=O)O)cccc23)C1 (stereo not shown) [5-[(3-carbamoylphenyl)methyl]-7-pentyl-5H,6H,7H,8H,9H,10H-cyclohepta[b]indole-4-carboxylic acid]	91.2	93.3
CCCC1CCCc2c(n(Cc3cccc(C(N)=O)c3)c3c(C(=O)O)cccc23)C1 (stereo not shown) [5-[(3-carbamoylphenyl)methyl]-7-propyl-5H,6H,7H,8H,9H,10H-cyclohepta[b]indole-4-carboxylic acid]	85.1	91.4
CCC1CCCCc2c1c1cccc(C(=O)O)c1n2Cc1cccc(C(N)=O)c1 (stereo not shown) [5-[(3-carbamoylphenyl)methyl]-10-ethyl-5H,6H,7H,8H,9H,10H-cyclohepta[b]indole-4-carboxylic acid]	86.4	98
CCCCCC1CCCCc2c1c1cccc(C(=O)O)c1n2Cc1cccc(C(N)=O)c1 (stereo not shown) [5-[(3-carbamoylphenyl)methyl]-10-pentyl-5H,6H,7H,8H,9H,10H-cyclohepta[b]indole-4-carboxylic acid]	81.1	96.1
CCCC1CCCCc2c1c1cccc(C(=O)O)c1n2Cc1cccc(C(N)=O)c1 (stereo not shown) [5-[(3-carbamoylphenyl)methyl]-10-propyl-5H,6H,7H,8H,9H,10H-cyclohepta[b]indole-4-carboxylic acid]	38.8	91.6
CCCCCCC1CCCc2c(n(Cc3cccc(C(=O)O)c3)c3c(C(=O)O)cccc23)C1 (stereo not shown) [5-[(3-carboxyphenyl)methyl]-7-hexyl-5H,6H,7H,8H,9H,10H-cyclohepta[b]indole-4-carboxylic acid]	89.8	89.2
CCCCCCC1CCCc2c(n(Cc3cccc(Cl)c3)c3c(C(=O)O)cccc23)C1 (stereo not shown) [5-[(3-chlorophenyl)methyl]-7-hexyl-5H,6H,7H,8H,9H,10H-cyclohepta[b]indole-4-carboxylic acid]	103	45.9
CCCCCCC1CCCc2c(n(Cc3cccc(C#N)c3F)c3c(C(=O)O)cccc23)C1 (stereo not shown) [5-[(3-cyano-2-fluorophenyl)methyl]-7-hexyl-5H,6H,7H,8H,9H,10H-cyclohepta[b]indole-4-carboxylic acid]	87.9	95.5
CCCCCCC1CCCc2c(n(Cc3cccc(C#N)c3)c3c(C(=O)O)cc(F)cc23)C1 (stereo not shown) [5-[(3-cyanophenyl)methyl]-2-fluoro-7-hexyl-5H,6H,7H,8H,9H,10H-cyclohepta[b]indole-4-carboxylic acid]	87.3	93.9
N#Cc1cccc(Cn2c3c(c4cccc(C(=O)O)c42)CCCC(CCc2ccccc2)C3)c1 (stereo not shown) [5-[(3-cyanophenyl)methyl]-7-(2-phenylethyl)-5H,6H,7H,8H,9H,10H-cyclohepta[b]indole-4-carboxylic acid]	93.1	94.5
CCC1CCCc2c(n(Cc3cccc(C#N)c3)c3c(C(=O)O)cccc23)C1 (stereo not shown) [5-[(3-cyanophenyl)methyl]-7-ethyl-5H,6H,7H,8H,9H,10H-cyclohepta[b]indole-4-carboxylic acid]	90	97
CCCCCCC1CCCc2c(n(Cc3cccc(C#N)c3)c3c(C(=O)O)cccc23)C1 (stereo not shown) [5-[(3-cyanophenyl)methyl]-7-hexyl-5H,6H,7H,8H,9H,10H-cyclohepta[b]indole-4-carboxylic acid]	94.1	88.7
CCCCCCCCC1CCCc2c(n(Cc3cccc(C#N)c3)c3c(C(=O)O)cccc23)C1 (stereo not shown) [5-[(3-cyanophenyl)methyl]-7-octyl-5H,6H,7H,8H,9H,10H-cyclohepta[b]indole-4-carboxylic acid]	94.5	93
CCCCCC1CCCc2c(n(Cc3cccc(C#N)c3)c3c(C(=O)O)cccc23)C1 (stereo not shown) [5-[(3-cyanophenyl)methyl]-7-pentyl-5H,6H,7H,8H,9H,10H-cyclohepta[b]indole-4-carboxylic acid]	100	96.1
CCC1CCCCc2c1c1cccc(C(=O)O)c1n2Cc1cccc(C#N)c1 (stereo not shown) [5-[(3-cyanophenyl)methyl]-10-ethyl-5H,6H,7H,8H,9H,10H-cyclohepta[b]indole-4-carboxylic acid]	92.4	98.2
CCCCCC1CCCCc2c1c1cccc(C(=O)O)c1n2Cc1cccc(C#N)c1 (stereo not shown) [5-[(3-cyanophenyl)methyl]-10-pentyl-5H,6H,7H,8H,9H,10H-cyclohepta[b]indole-4-carboxylic acid]	44.3	77
CCCC1CCCCc2c1c1cccc(C(=O)O)c1n2Cc1cccc(C#N)c1 (stereo not shown) [5-[(3-cyanophenyl)methyl]-10-propyl-5H,6H,7H,8H,9H,10H-cyclohepta[b]indole-4-carboxylic acid]	73.3	97.5
CCCCCCC1CCCc2c(n(Cc3cccc(F)c3)c3c(C(=O)O)cccc23)C1 (stereo not shown) [5-[(3-fluorophenyl)methyl]-7-hexyl-5H,6H,7H,8H,9H,10H-cyclohepta[b]indole-4-carboxylic acid]	93.6	92.9
CCCCCCC1CCCc2c(n(Cc3ccc(C(N)=O)cc3)c3c(C(=O)O)cccc23)C1 (stereo not shown) [5-[(4-carbamoylphenyl)methyl]-7-hexyl-5H,6H,7H,8H,9H,10H-cyclohepta[b]indole-4-carboxylic acid]	77.7	83.8
CCCCCCC1CCCc2c(n(Cc3ccc(C#N)cc3)c3c(C(=O)O)cccc23)C1 (stereo not shown) [5-[(4-cyanophenyl)methyl]-7-hexyl-5H,6H,7H,8H,9H,10H-cyclohepta[b]indole-4-carboxylic acid]	81.3	84.7
CCCCCCC1CCCc2c(n(Cc3ccc(F)cc3)c3c(C(=O)O)cccc23)C1 (stereo not shown) [5-[(4-fluorophenyl)methyl]-7-hexyl-5H,6H,7H,8H,9H,10H-cyclohepta[b]indole-4-carboxylic acid]	74.4	77.6
CCCCCCC1CCCc2c(n(Cc3ccc(C#N)o3)c3c(C(=O)O)cccc23)C1 (stereo not shown) [5-[(5-cyanofuran-2-yl)methyl]-7-hexyl-5H,6H,7H,8H,9H,10H-cyclohepta[b]indole-4-carboxylic acid]	81.3	90
